Here are results for 12 compounds from paper PMC9482650, “Quantitative fragmentomics allow affinity mapping of interactomes” (Nature Communications, 2022).

Experiment [1] has as its target SNX27 PDZ (Homo sapiens, UniProt Q96L92). Briefly: Holdup assay. The experiment is classed as binding.
Experiment [2] has as its target DLG1_1 PDZ (Homo sapiens, UniProt Q12959). Briefly: Holdup assay. In kind it is binding.
The target of experiment [3] is SCRIB_1 PDZ (Homo sapiens, UniProt Q14160). Briefly: Holdup assay. The experiment is classed as binding.
For experiment [4], the target named is DLG1_2 PDZ (Homo sapiens, UniProt Q12959). Briefly: Holdup assay. In kind it is binding.
Experiment [5] addresses T1, TX1BP3 PDZ (Homo sapiens, UniProt O14907).
T1 sequence (O14907 15-112 limits assumed): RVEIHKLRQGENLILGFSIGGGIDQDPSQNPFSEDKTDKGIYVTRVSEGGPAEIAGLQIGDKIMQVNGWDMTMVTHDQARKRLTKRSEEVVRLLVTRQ
Kind of experiment: Holdup assay. In kind it is binding.

The subject of experiment [6] is HEK293T cells. Briefly: Label-free MS proteome of stable cell lines expressing HPV16 E6 or E6ΔPBM. As to conditions: protein level. In kind it is cell-based, human. As for the experimental part:
HEK293T and HeLa cells were authenticated and found 100% identity to ATCC cat. CRL-3216 and ATCC cat. CCL-2, respectively. Jurkat and HaCat cell lines were not authenticated (original source: ECACC and Deutsches Krebsforschungszentrum DKFZ, respectively). HeLa cells were grown in DMEM (1 g/L glucose, Gibco) medium completed with 5% FCS and 40 μg/mL gentamicin, diluted every 3rd/4th day 1/10. HaCat cells were grown in DMEM (1 g/L glucose, Gibco) medium completed with 10% FCS and 40 μg/mL gentamicin, diluted every 3rd/4th day 1/4. Jurkat cells were grown in RPMI (Gibco) medium completed with 10% FCS and 40 μg/mL gentamicin, diluted every 3rd/4th day 1/12. All cells were kept at 37 °C and 5% CO2. For proteomics analyses cells were seeded on T-175 flasks. After they reached confluency, adherent cells were washed with PBS once and collected by scraping with ice-cold lysis buffer (Hepes-KOH pH 7.5 50 mM, NaCl 150 mM, Triton X-100 1%, complete EDTA-free protease inhibitor cocktail 1×, EDTA 2 mM, TCEP 5 mM, glycerol 10%). Jurkat cells were collected by 1000 g × centrifugation, washed once with PBS, then collected by 1000 g × 5 min centrifugation again and lysed in ice-cold lysis buffer. Lysates were sonicated 4 × 20 s with 1 s long pulses on ice, then incubated rotating at 4 °C for 30 min. Lysates were centrifuged at 12,000 rpm 4 °C for 20 min and supernatant was kept for further analysis. Concentration determination was carried out by standard Bradford method (Bio-Rad Protein Assay Dye Reagent #5000006) using BSA (MP BIomedicals #160069) as control on a Bio-Rad SmartSpec 3000 spectrophotometer instrument.
(§1) The samples were precipitated with TCA 20% overnight at 4 °C and centrifuged at 14,000 rpm for 10 min at 4 °C. The protein pellets were washed twice with 1 mL cold acetone and air dried. The protein extracts were solubilized in urea 8 M, reduced with 5 mM TCEP for 30 min, and alkylated with 10 mM iodoacetamide for 30 min in the dark. Double digestion was performed at 37 °C with 500 ng endoproteinase Lys-C for 4 h, followed by fourfold dilution and an overnight digestion with 500 ng trypsin. Peptide mixtures were then desalted on C18 spin-column and dried on Speed-Vacuum.
(§2) Samples were analyzed using an Ultimate 3000 nano-RSLC (Thermo Scientific, San Jose California) coupled in line with a LTQ-Orbitrap ELITE mass spectrometer via a nano-electrospray ionization source (Thermo Scientific, San Jose California). Peptide mixtures were injected in 0.1% TFA on a C18 Acclaim PepMap100 trap-column (75 µm ID × 2 cm, 3 µm, 100 Å, Thermo Fisher Scientific) for 3 min at 5 µL/min with 2% ACN, 0.1% FA in H2O and then separated on a C18 Accucore nano-column (75 µm ID × 50 cm, 2.6 µm, 150 Å, Thermo Fisher Scientific) at 220 nl/min and 38 °C with a 90 min linear gradient from 5% to 30% buffer B (A: 0.1% FA in H2O/B: 99% ACN, 0.1% FA in H2O), regeneration at 5% B. The mass spectrometer was operated in positive ionization mode, in data-dependent mode with survey scans from m/z 350–1500 acquired in the Orbitrap at a resolution of 120,000 at m/z 400. The 20 most intense peaks from survey scans were selected for further fragmentation in the Linear Ion Trap with an isolation window of 2.0 Da and were fragmented by CID with normalized collision energy of 35%. (TOP20CID method) Unassigned and single charged states were excluded from fragmentation. The Ion Target Value for the survey scans (in the Orbitrap) and the MS2 mode (in the Linear Ion Trap) were set to 1E6 and 5E3 respectively and the maximum injection time was set to 100 ms for both scan modes. Dynamic exclusion was set to 20 s after one repeat count with mass width at ±10 ppm.
Proteins were identified by database searching using SequestHT (Thermo Fisher Scientific) with Proteome Discoverer 2.4 software (PD2.4, Thermo Fisher Scientific) on human FASTA database downloaded from SwissProt (reviewed, release 2020_11_27, 20304 entries, https://www.uniprot.org/). […]

Experiment [7] concerns HaCat cell extract preys. Briefly: PDZ-AP-MS, biotinylated MBP-PDZ baits. In kind it is binding, human. The conditions noted are these: for Difference log2: enrichment of prey. The method, then: (§3) For PDZ-AP-MS experiments, PDZ domains were cloned as His6-AviTag-MBP-PDZ constructs. For co-expression with BirA, E. coli BL21(DE3) cells were co-transformed with His6-AviTag-MBP, or His6-AviTag-MBP-PDZ-coding and PET21a-BirA (Addgene #20857) plasmids. Simultaneously to IPTG induction, 50 µM biotin was added to the media. After cell harvesting, the lysis buffer was also supplemented with 50 µM biotin. Otherwise, expression and double affinity purification was identical as previously described in details.
(§4) For PBM-AP-MS experiments, 30 μl streptavidin resin was mixed with biotin or peptide at 50–60 μM concentration in 6–6.5 resin volume for 60 min to achieve resin saturation. For PDZ-AP-MS experiments, 30 μl streptavidin resin was mixed with biotinylated MBP or MBP-PDZ at 40-50 μM concentration in >1000× resin volume for 60 min to achieve resin saturation. After saturation, resins were washed a single time (ten resin volume, holdup buffer), and were depleted with biotin (1 mM biotin, 5–10 resin volume, 10 min). Finally, resins were washed two times. 0.5 ml 2 mg/ml cell lysate was added to the dry resin (1 mg total input) and were incubated at 4 °C for 2 h. Then, the beads were washed three times with 10 resin volume buffer containing: 50 mM TRIS pH 8.5, 150 mM NaCl, 1% TritonX-100, 10× complete EDTA-free protease inhibitor cocktail, 2 mM EDTA, 1 mM TCEP. Then, the beads were washed two times with ten resin volume buffer containing: 50 mM TRIS pH 8.5, 150 mM NaCl, 1 mM TCEP. Finally, captured protein was eluted from the resin in two steps and the eluted fractions were pooled. For each elution the beads were incubated for 30 min with three resin volume buffer containing: 20 mM TRIS pH8.5, 100 mM NaCl, 500 μM TCEP, 8 M Urea. Between each step, the beads were separated by mild centrifugation and the supernatant was removed by gentle pipetting.
as §1
as §2, with “ppm. […]” for “ppm.”

Experiment [8] has as its system Jurkat cell extract preys. Briefly: PDZ-AP-MS, biotinylated MBP-PDZ baits. The conditions noted are these: for Difference log2: enrichment of prey. The experiment is classed as binding, human. As for the experimental part: as §3, §4, §1
as §2, with “ppm. […]” for “ppm.”

Setting [9] is: PBM motif of the named protein vs DLG1_1 PDZ, read-out: pKd values – domain-motif, DLG1_1 (converted).
The mark [10] stands for this setting: PBM motif of the named protein vs SCRIB_1 PDZ, read-out: pKd values – domain-motif, SCRIB_1 (converted).
The mark [11] stands for this setting: PBM motif of the named protein vs DLG1_2 PDZ, read-out: pKd values – domain-motif, DLG1_2 (converted).
The mark [12] stands for this setting: PBM motif of the named protein vs TX1BP3 PDZ, read-out: pKd values – domain-motif, TX1BP3 (converted).
Setting [13] is: holdup affinity of the PBM peptide of the named protein, sheet PBMcomplexome, lower sub-table, 3.5 appears to be the floor for no detectable binding, read-out: affinity of PBM to TX1BP3 (pKd) (converted).
[14] abbreviates: holdup affinity of the PBM peptide of the named protein, sheet PBMcomplexome, lower sub-table.
[15] abbreviates: holdup affinity of the PBM peptide of the named protein, sheet PBMcomplexome, lower sub-table, 3.5 appears to be the floor for no detectable binding, read-out: affinity of PBM to SCRIB_1 (pKd) (converted).
The mark [16] stands for this setting: bait SCRIB_1 PDZ, fold change of prey.
[17] abbreviates: bait SNX27 PDZ, fold change of prey.

Like-named read-outs stand apart in the source and are kept apart here. Ends that are not written are not given here.

SCRIB_1 PDZ, sequence (Q14160 728-815 limits assumed): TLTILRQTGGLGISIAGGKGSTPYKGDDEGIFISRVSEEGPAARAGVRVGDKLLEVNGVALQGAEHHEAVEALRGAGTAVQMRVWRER

Compound `CC(C)C[C@H](NC(=O)[C@@H]1CCCN1C(=O)[C@@H]1CCCN1C(=O)[C@H](CCCCN)NC(=O)[C@H](CO)NC(=O)[C@H](CC(=O)O)NC(=O)CCCCCNC(=O)CCCC[C@@H]1SC[C@@H]2NC(=O)N[C@@H]21)C(=O)N1CCC[C@H]1C(=O)N1CCC[C@H]1C(=O)N[C@@H](CC(=O)O)C(=O)N[C@@H](CCC(=O)O)C(=O)N[C@@H](Cc1c[nH]c2ccccc12)C(=O)N[C@H](C(=O)O)C(C)C` [MERS E] gave a Kd in experiment [1] of 27.5 µM.
For the compound DLDEEEDTHL [PODXL], the Kd in experiment [1] was 7.08 µM; in experiment [2] (setting [9]), 234 µM; in experiment [3] (setting [10]), 8.32 µM.
On to DPRNTQTSQI [ABRAXAS2], for which the Kd in experiment [4] (setting [11]) is 145 µM; in experiment [1], 91.2 µM; in experiment [5] (setting [12]) it was 195 µM; in experiment [2] (setting [9]), 324 µM; in experiment [3] (setting [10]), 95.5 µM.
Turning to DRIQSCLSDA [SBF1], in experiment [5] (setting [13]), the Kd was 91.2 µM.
Turning to EALLQMESVA [CAVIN3], the Kd in experiment [1] (setting [14]) was 74.1 µM; in experiment [3] (setting [15]) it was 275 µM.
Regarding ELSATVTTDC [TRIP6], the Kd is 214 µM in experiment [4] (setting [11]), 26.9 µM in experiment [1], 331 µM in experiment [5] (setting [12]) and 33.1 µM in experiment [3] (setting [10]).
On to ESYT2, for which, in experiment [6] (E6 cell line vs control), the “Difference log2 E6/Ctrl” value is -0.8847 and the “Ratio E6/Ctrl” value is listed as 0.5416. In experiment [6] (dPBM cell line vs E6 cell line), the “Difference log2 dPBM/E6” value is given as -0.2136 and the “Ratio dPBM/E6” value stood at 0.8624. In addition, in experiment [6] (dPBM cell line vs control), the “Difference log2 dPBM/Ctrl” value is recorded as -1.098 and the “Ratio dPBM/Ctrl” value is 0.4671.
For GGPKEEESPV [SLC16A1], the results for the Kd in experiment [4] (setting [11]), in experiment [1] and in experiment [3] (setting [10]) were 275 µM, 5.37 µM and 6.61 µM, respectively.
NLQEHSTTSV [RSBN1]: the Kd in experiment [4] (holdup affinity of the PBM peptide of the named protein, sheet PBMcomplexome, lower sub-table, 3.5 appears to be the floor for no detectable binding, read-out: affinity of PBM to DLG1_2 (pKd) (converted)) is 102 µM; in experiment [1] (setting [14]), 3.31 µM; in experiment [5] (setting [13]), 107 µM; in experiment [2] (holdup affinity of the PBM peptide of the named protein, sheet PBMcomplexome, lower sub-table, 3.5 appears to be the floor for no detectable binding, read-out: affinity of PBM to DLG1_1 (pKd) (converted)), 316 µM; in experiment [3] (setting [15]), 263 µM.
With PKMKLNETSF [SHKBP1], the values for the Kd in experiment [1] and in experiment [3] (setting [10]) were 2.88 µM and 49 µM, respectively.
With TJP1, the entries for the “Difference log2” value in experiment [7] (bait DLG1_1 PDZ vs MBP), in experiment [7] (bait SCRIB_1 PDZ vs MBP) and in experiment [7] (bait SNX27 PDZ vs MBP) were 11.6713, 5.351 and 10.4278, respectively. The “Ratio DLG1_1/MBP” value in experiment [7] (bait DLG1_1 PDZ, fold change of prey) was 3261.52. The “Ratio SCRIB_1/MBP” value in experiment [7] (setting [16]) is 40.8237. Moreover, in experiment [7] (setting [17]), the “Ratio SNX27/MBP” value is reported as 1377.49.
Turning to VIM, the results for the “Difference log2” value in experiment [8] (bait SCRIB_1 PDZ vs MBP), in experiment [8] (bait SNX27 PDZ vs MBP) and in experiment [8] (bait TX1BP3 PDZ vs MBP) were 7.128, 6.235 and 7.255, respectively. In addition, the “Ratio SCRIB_1/MBP” value in experiment [8] (setting [16]) came to 139.918. For the same compound, in experiment [8] (setting [17]), the “Ratio SNX27/MBP” value was 75.3373. In experiment [8] (bait TX1BP3 PDZ, fold change of prey), the “Ratio TX1BP3/MBP” value was 152.718.
